Measured values reported in patent US11565003B2, “Mechanical opening of lipid bilayers by molecular nanomachines” (William Marsh Rice University, priority 2016, dated 2023).
Residues, ends and D or L forms follow the SMILES beside them. *: point of attachment. X1 = C[C@@H]1Cc2ccc3ccccc3c2/C1=C1\c2cc(C#CCCN=[N+]=[N-])ccc2Sc2ccc(C#CCCn3cc(C(=O)*)nn3)cc21

How the values were obtained:
[1] = test system: PC-3 cells; test: UV-activated nanomechanical necrosis, live cell confocal microscopy, PC-3; format: cell-based, human; conditions: for selectivity for targeted PC-3 cells over non-targeted control cells (in words): NIH 3T3 and CHO as non-targeted controls; for Time of Full Necrosis / Time of Initial Necrosis / % acceleration for full necrosis: 355 nm UV; for % acceleration for full necrosis: versus UV upon blank cells
Description: (§1) Following the synthetic bilipid vesicle experiments, nanomechanical action upon live cells was studied using confocal microscopy aided by a super-resolution technique called Phase Modulation Nanoscopy. Applicants used two experimental methods. In the first method (Method A), the molecular motors were loaded into the cell media and the imaging was initiated within 5 minutes to 24 hours. In the second method, (Method B), the molecular motors were loaded into the cell media, incubated for 30 minutes to 24 hours, and then washed three times with fresh molecular motor-free media before imaging.
Next, Applicants used the smaller nanomachine, 3. Initial control experiments (blank) were performed without nanomachines being present. UV-induced (355 nm) PC-3 necrosis is not initiated until approximately scan 20 (corresponding to 300 second continuous scanning UV exposure, 400 nJ/voxel total dwell time), characterized by massive disruption and rupture of the mitochondrial network and subsequent well-pronounced auto-fluorescent signal detectable in the nucleoli and nucleus wall (FIG. 7A). This is observable by the nucleoli membrane permeabilization and DNA damage at the onset of necrosis. The UV-induced necrosis reaches final stages at approximately scan 40 (corresponding to 600 seconds) that is consistent with characteristic extracellular membrane rupture and homogenous cytosolic auto-fluorescence, indicating loss of cellular organelle boundaries.
(§2) Microscopy cells were seeded in untreated iBibi 100 μL live cell channels and allowed to grow to 40% to 60% confluence, at 37° C. in 5% CO2. At this stage, the medium was replaced and cells were treated with the studied nanomachines and co-stains as appropriate, with 0.1% DMSO (as detailed above) present in the final imaging medium. For live cell imaging, DMEM/F12 media (10% FBS) lacking phenol red was used from this point onwards. Following incubation, where Method B was used, the channels were washed with live cell imaging media and imaged using a purpose build incubator housing the microscope maintaining 37° C., 5% CO2 and 10% humidity.
(§3) All live cell imaging experiments used either NIH 3T3 mouse skin fibroblast cells, PC-3 cells, a grade 3 human prostate adenocarcinoma, or Chinese hamster ovary cells (CHO). These are all well-studied cell lines with discrete morphological compositions. Each molecular machine was used as a stock solution at 0.10 to 1.00 μM with total dimethyl sulfoxide (DMSO) concentrations not exceeding 0.1% in the final cell media in order to avoid unwanted cell membrane permeabilization, the DMSO being required for solubility of the organic nanomachines. All loading experiments are carried out in a light-suppressed manner and the possibility of induced or accelerated uptake due to interaction between the molecular motors and the applied co-stain has been eliminated using a series of individual and reversed loading experiments.
(§4) All experimental imaging parameters (i.e., laser beam size, confocal pinhole size, laser intensity, line scanning speed, scanning area (field of view, FOV), and line averaging sequences) were kept constant throughout the experiments. The accuracy and errors associated with the establishment of accelerated necrosis are determined based on one dual channel imaging sequence, which takes 15 seconds in total. This imaging sequence has been carefully established using untreated live cells.
Steady state fluorescence images were recorded using a PhMoNa enhanced Leica SP5 II LSCM equipped with a HCX PL APO 63×/1.40 NA LambdaBlue Oil immersion objective. As an initial control experiment to establish the UV-induced cell toxicity threshold, while mitigating voxel exposure and ensuring sufficient laser dwell time, an imaging sequence has been established to monitor cell morphological and physiological changes as a function of time. All experiments used cell-line-determined culture medium containing 0.1% DMSO. […]

[2] = test system: NIH 3T3 cells; test: UV-activated nanomechanical necrosis, live cell confocal microscopy, NIH 3T3; format: cell-based, mouse; conditions: for Time of Full Necrosis / Time of Initial Necrosis / % acceleration for full necrosis: 355 nm UV; for % acceleration for full necrosis: versus UV upon blank cells
Description: as §1, with “imaging. […]” for “imaging.”
as §2, §3, §4
(§5) Steady state fluorescence images were recorded using a PhMoNa enhanced Leica SP5 II LSCM equipped with a HCX PL APO 63×/1.40 NA LambdaBlue Oil immersion objective. As an initial control experiment to establish the UV-induced cell toxicity threshold, while mitigating voxel exposure and ensuring sufficient laser dwell time, an imaging sequence has been established to monitor cell morphological and physiological changes as a function of time. All experiments used cell-line-determined culture medium containing 0.1% DMSO.
(§6) The applied 100 Hz detection sequence was based on a bidirectional dual-channel continuous scanning method where a minimalistic non-damaging visible laser light (458 nm, 0.2 mW) is used in conjunction with the above detailed UV exposure. This is set as a 2 line/scan accumulation parallel acquisition sequence that is recorded as a function of time. Studied channels correspond to transmission images and UV-induced mitochondrial auto-fluorescence detected at 460 to 550 nm. Applicants further confirmed that the effectiveness of monitoring the UV-activated nanomechanical action on live cells using a conventional CW mercury-arc excitation source equipped with an epi-fluorescence setup consisting of a Zeiss Axiovert 200M inverted microscope, as discussed in FIGS. 18A-C. […]

[3] = test system: PC-3 cells; test: Two-photon near-infra red activation, PI dye entry, PC-3; format: cell-based, human; conditions: PC-3, 1 μM, PI 200 nM
Description: (§7) Two-photon microscopy studies of NIH 3T3 cells were executed on a Nikon E600 upright confocal microscope coupled to a tuneable (710-950 nm Coherent MaiTai) multiphoton source operating at (20%) 240 mW power using a 166 lps scan speed and 128×128 pixel frame resolution for MP-illumination. Images (512×512 pixel, 166 lps) were recorded using a 543 nm (1 mW HeNe) laser combined with a 560 nm long-pass filter to record PI (200 nM) fluorescence and follow the onset of induced necrosis.
(§8) Two photon live cell microscopy studies were also executed on a Nikon E600 upright confocal microscope coupled to a tuneable (710-950 nm Coherent MaiTai) multiphoton source operating at (19.8%) 240 mW power at 720 nm using 166 lines/sec scan speed and 128×128 pixel frame resolution for MP-illumination. An oil immersion Nikon IR objective (×60/1.4 NA) was used. Images (512×512 pixel, 166 l/s) were recorded using a 543 nm (1 mW HeNe) laser combined with a 570 nm long-pass filter to record PI dyes (200 nM). Fluorescence was measured as 2 frame averaged images in order to follow the onset of induced necrosis. Necrosis times have been assigned to detectable PI signals in the nucleolus.

[4] = test system: NIH 3T3 cells; test: Two-photon near-infra red activation, PI dye entry, NIH 3T3; format: cell-based, mouse; conditions: NIH 3T3, 1 μM, PI 200 nM
Description: as §7, §8

[5] = test system: PC-3 cells; test: 24 hours incubation without UV: proliferation and apoptosis (Annexin V, Image Cytometry); format: cell-based, human
Description: When PC-3 cells are loaded at 0.5 or 1.0 μM with 9 or 10, washed three times (Method B) or unwashed (Method A) after 24 hours of incubation, the cells visually appear without major signs of toxicity. However, the cells which had been incubated with 9 or 10 over 24 hours were not dividing as prolifically. The cultures appear to be populated ˜25% less in the presence of 9 and 20% of the cells in 10 compared to control untreated cells (FIGS. 12A-E).
In order to further investigate this point, these cells were collected via gentle centrifugation and re-suspended in fresh PBS and analyzed by Image Cytometry. Using Annexin V, these cells were all confirmed to show signs of apoptosis at 93±5%. This is in contrast to the remaining coverslip surface-bound cells that appear healthy.
These latter types of non-apoptotic cells show identical percentage of necrosis acceleration upon subsequent UV-activation of the cell-surface bound nanomachines compared to their shorter incubation time analogues. Thus, it appears that, upon 24 hour incubation, a noticeable amount of cells have nanomachines 9 and 10 either bound to vital cell membrane channels or transport proteins or they are internalized, subsequently shutting down some natural homeostatic mechanisms that leads to programmed cell death (FIGS. 12A-E). Furthermore, this is not the case with shorter incubation times regardless of whether Method A or B is used.

[6] = test system: CHO cells; test: UV-activated nanomechanical necrosis, live cell confocal microscopy, CHO; format: cell-based, Chinese hamster; conditions: 355 nm UV; for % acceleration for full necrosis: versus UV upon blank cells
Description: as §1, with “imaging. […]” for “imaging.”
as §2, §3, §4, §5, §6

[7] = test system: HEK293 cells; test: Whole cell patch clamp electrophysiology; format: cell-based, human
Description: FIGS. 16A-B show whole-cell patch clamp studies of the dynamic effects of UV-induced molecular mechanical action of compound 3 upon HEK293 cells. Also shown are control studies using compound 3 without UV activation, UV-exposed rotor-free control molecule 5, and no molecular additives x. Compounds 3 and 5 were used at 1.0 μM concentrations. […] Similarly, the rotor-free compound 5, and no molecular additive x, show no inward currents during UV illumination (center two traces). Cells were held at −70 mV in voltage clamp mode and UV exposure began 15 seconds after the start of the recording. Each recording is a biological replicate and all traces are shown (n=4 recordings from different cells for 3+UV; n=3 recordings from different cells for each other condition). […] The white arrows (lower right image) highlight membrane blebbing that appears only in the cells treated with UV-activated compound 3. The scale bar represents 10 μm and is applicable for each micrograph.
The dynamic effects of nanomechanical action upon cellular membranes were then studied through the whole cell patch clamp electrophysiology of human embryonic kidney 293 cells (HEK293) commonly used for electrophysiological interrogation. […] These inward currents were not observed in the absence of UV illumination or during UV illumination of non-rotor-bearing control 5 or UV illumination of untreated cells (FIG. 16A).

[8] = PC-3, Method B (washed three times)
[9] = NIH 3T3, Method B (washed three times)

SMILES	selectivity for targeted PC-3 cells over non-targeted control cells (in words) [1]	Time of Full Necrosis ([1]; PC-3, Method A (no washing)) [s]	Time of Initial Necrosis ([1]; PC-3, Method A (no washing)) [s]	% acceleration for full necrosis ([1]; PC-3, Method A) [%]	Time of Full Necrosis [1, 8] [s]	Time of Initial Necrosis [1, 8] [s]	% acceleration for full necrosis ([1]; PC-3, Method B) [%]	Time of Full Necrosis ([2]; NIH 3T3, Method A (no washing)) [s]	Time of Initial Necrosis ([2]; NIH 3T3, Method A (no washing)) [s]	% acceleration for full necrosis ([2]; NIH 3T3, Method A) [%]	Time of Full Necrosis [2, 9] [s]	Time of Initial Necrosis [2, 9] [s]	% acceleration for full necrosis ([2]; NIH 3T3, Method B) [%]	PI dye entry upon two-photon near-infra red illumination (in words) [3]	PI dye entry upon two-photon near-infra red illumination (in words) [4]	further results
C[C@H](NC(=O)[C@H](CCC(=O)O)NC(=O)CNC(=O)[C@H](CC(=O)O)NC(=O)CCc1cn(CCC#Cc2ccc3c(c2)/C(=C2/c4c(ccc5ccccc45)C[C@H]2C)c2cc(C#CCCN=[N+]=[N-])ccc2S3)nn1)C(N)=O [Compound 8]	No selectivity was observed	360	150	40	360	150	40	375	150	37.5	360	150	40	resulting in Propidium Iodide (PI) dyes entering	resulting in Propidium Iodide (PI) dyes entering	
CC(C)[C@H](NC(=O)[C@H](CCCNC(=N)N)NC(=O)[C@@H](NC(=O)[C@H](CC(N)=O)NC(=O)[C@H](CO)NC(=O)c1cn(CCC#Cc2ccc3c(c2)/C(=C2/c4c(ccc5ccccc45)C[C@H]2C)c2cc(C#CCCN=[N+]=[N-])ccc2S3)nn1)[C@@H](C)O)C(=O)N[C@@H](C)C(=O)N1CCC[C@H]1C(=O)O [Compound 10] (X1-SNTRVAP-OH)	selectively target the PC-3 cell line over CHO cells	420	195	30	435	210	27.5	540	270	10	600	300	0			cultures populated less compared to control untreated cells ([5]; PC-3, 0.5 or 1.0 μM, 24 hours of incubation, no UV): 20%; mobilized cells showing signs of apoptosis (Annexin V) ([5]; PC-3, 24 hours incubation, cells collected from culture media): 93±5%; Time of Full Necrosis ([6]; Method A (no washing)): 540 s; Time of Initial Necrosis ([6]; Method A (no washing)): 270 s; % acceleration for full necrosis ([6]; Method A): 10%; Time of Full Necrosis ([6]; Method B (washed three times)): 600 s; Time of Initial Necrosis ([6]; Method B (washed three times)): 300 s; % acceleration for full necrosis ([6]; Method B): 0%; accelerated necrosis upon UV-activation after washing and further 24 hours in rotor free media ([1]; PC-3, incubated 30 minutes to 4 hours, washed three times, 24 hours rotor free media): 25%; UV-accelerated nanomechanical necrosis after 24 hours incubation (in words) ([2]; NIH 3T3, incubated 24 hours): less than half the efficiency compared to identical experiments using the targeted PC-3 cells
C[C@@H]1Cc2ccc3ccccc3c2C1=C1c2cc(C#CCCO)ccc2Sc2ccc(C#CCCO)cc21 (racemic) [Compound 3]		300	135	50				300	150	50				resulting in Propidium Iodide (PI) dyes entering	resulting in Propidium Iodide (PI) dyes entering	membrane currents without UV illumination (in words) ([7]; HEK293, 1.0 μM, 4 minute recording, no UV): no change in membrane currents; inward ionic currents during UV illumination (in words) ([7]; HEK293, Method B, UV 355 nm, 1.0 μM): inward ionic currents were produced; radius of membrane blebs ([7]; HEK293, after UV illumination): 3.8±0.2 μm; PI entry into cells upon UV-activated membrane disruption (in words) ([1]; PC-3, propidium iodide 0.10 μM in medium): PI enters the cell
